A short description of this series: Formaldehyde production in test blood diluents containing antimicrobial agents (EPA Method 8315A). Type of series: physicochemical. The settings on record: when employed in the blood diluent of the invention.

From patent US20030166290A1, “Low formaldehyde producing blood diluent” (priority 2002, published 2003) come the findings set out here.

Structures are written as SMILES.

Experimental: Diluent components into which the listed antimicrobials were added were:
Each test diluent was assayed for formaldehyde production within about two weeks from time of production to determine if formaldehyde is produced. Different lots of the final diluent formulation were monitored for formaldehyde concentration over a year's time. […] This method entails derivitizing the diluent sample with 2,4-dinitrophenylhydrazine to convert the carbonyl groups of aldehydes present to the hydrazones. Each carbonyl compound present in the sample forms a separate hydrazone derivative and these individual derivatives are extracted from the diluent solution using an organic solvent. The individual hydrazone derivatives are separated and quantified by HPLC (High Performance Liquid Chromatography).

Consider `O=[N+]([O-])C1(Br)COCOC1` [5-bromo-5-nitro-1,3-dioxane], for which the “formaldehyde produced or contained” value was at most 1 ppm.
